From patent publication US10457684B2, “[1,2,3]triazolo[4,5-d]pyrimidine derivatives” (Hoffmann-La Roche Inc., priority 2016, dated 2019)

Assays:
human CB2 receptor = human CB2 receptor (Homo sapiens (Human), UniProt P34972); assay: Radioligand binding assay, [3H]-CP-55,940, membranes of HEK cells expressing human CNR2; conditions: 2.6 nM [3H]-CP-55,940, HEK cell membranes, 1 h at 30° C.
Protocol: (§1) Radioligand Binding Assay
(§2) The affinity of the compounds of the invention for cannabinoid receptors was determined using recommended amounts of membrane preparations (PerkinElmer) of human embryonic kidney (HEK) cells expressing the human CNR1 or CNR2 receptors in conjunction with 1.5 or 2.6 nM [3H]-CP-55,940 (Perkin Elmer) as radioligand, respectively. Binding was performed in binding buffer (50 mM Tris, 5 mM MgCl2, 2.5 mM EDTA, and 0.5% (wt/vol) fatty acid free BSA, pH 7.4 for CB1 receptor and 50 mM Tris, 5 mM MgCl2, 2.5 mM EGTA, and 0.1% (wt/vol) fatty acid free BSA, pH 7.4 for CB2 receptor) in a total volume of 0.2 mL for 1 h at 30° C. shaking. The reaction was terminated by rapid filtration through microfiltration plates coated with 0.5% polyethylenimine (UniFilter GF/B filter plate; Packard). Bound radioactivity was analyzed for Ki using nonlinear regression analysis (Activity Base, ID Business Solution, Limited), with the Kd values for [^3H]CP55,940 determined from saturation experiments.
The compounds according to formula (I) have an activity in the above assay (Ki) particularly of 0.5 nM to 10 μM, more particularly of 0.5 nM to 3 μM and most particularly of 0.5 nM to 100 nM.

human CB1 receptor = human CB1 receptor (Homo sapiens (Human), UniProt P21554); assay: Radioligand binding assay, [3H]-CP-55,940, membranes of HEK cells expressing human CNR1; conditions: 1.5 nM [3H]-CP-55,940, HEK cell membranes, 1 h at 30° C.
Sequence of human CB1 receptor (P21554 whole entry): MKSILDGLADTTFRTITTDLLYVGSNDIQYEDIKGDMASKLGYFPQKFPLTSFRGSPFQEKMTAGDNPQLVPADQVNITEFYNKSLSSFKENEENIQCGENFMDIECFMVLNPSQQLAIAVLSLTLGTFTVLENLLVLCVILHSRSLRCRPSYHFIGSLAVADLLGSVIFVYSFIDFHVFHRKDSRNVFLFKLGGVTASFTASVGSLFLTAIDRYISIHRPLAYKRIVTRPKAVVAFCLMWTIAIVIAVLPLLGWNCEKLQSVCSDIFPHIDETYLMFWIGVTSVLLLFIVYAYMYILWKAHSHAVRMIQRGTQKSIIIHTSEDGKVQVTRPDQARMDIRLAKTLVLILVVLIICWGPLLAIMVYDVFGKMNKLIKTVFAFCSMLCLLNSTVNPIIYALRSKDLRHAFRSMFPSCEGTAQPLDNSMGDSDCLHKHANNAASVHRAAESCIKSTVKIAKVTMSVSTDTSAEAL
Protocol: as §1, §2

Sequence of human CB2 receptor (P34972 whole entry): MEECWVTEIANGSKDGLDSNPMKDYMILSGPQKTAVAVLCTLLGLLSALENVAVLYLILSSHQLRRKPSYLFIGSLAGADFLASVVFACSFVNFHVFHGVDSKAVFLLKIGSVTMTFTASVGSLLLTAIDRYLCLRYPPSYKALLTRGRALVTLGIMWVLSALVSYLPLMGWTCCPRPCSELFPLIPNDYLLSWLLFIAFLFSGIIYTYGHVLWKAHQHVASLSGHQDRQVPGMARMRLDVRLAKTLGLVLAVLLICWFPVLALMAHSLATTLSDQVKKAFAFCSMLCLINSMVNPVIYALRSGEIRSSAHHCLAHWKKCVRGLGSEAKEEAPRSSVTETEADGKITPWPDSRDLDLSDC

| Compound | Ki (human CB2 receptor) [nM] | Ki (human CB1 receptor) [nM] |
| --- | --- | --- |
| C#Cc1cccc(C2(C(F)(F)F)N=N2)c1Cn1nnc2c(N3CC[C@H](O)C3)nc(C(F)(F)c3ccccc3)nc21 [Example 15, (3S)-1-[5-[Difluoro(phenyl)methyl]-3-[[2-ethynyl-6-[3-(trifluoromethyl)diazirin-3-yl]phenyl]methyl]triazolo[4,5-d]pyrimidin-7-yl]pyrrolidin-3-ol] | 58 | > 10000 |
| C#Cc1cccc(C2(C(F)(F)F)N=N2)c1Cn1nnc2c(N3CC[C@H](O)C3)nc(C(C)(C)C)nc21 [Example 14, (3S)-1-[5-tert-Butyl-3-[[2-ethynyl-6-[3-(trifluoromethyl)diazirin-3-yl]phenyl]methyl]triazolo[4,5-d]pyrimidin-7-yl]pyrrolidin-3-ol] | 12 | > 10000 |
| FC(F)(c1ccccc1)c1nc(N2CCC3(C2)N=N3)c2nnn(Cc3ccccc3Cl)c2n1 [Example 6, 3-[(2-Chlorophenyl)methyl]-5-[difluoro(phenyl)methyl]-7-(1,2,5-triazaspiro[2.4]hept-1-en-5-yl)-3H-[1,2,3]triazolo[4,5-d]pyrimidine] | 9.9 | 799 |
| C#Cc1ccccc1Cn1nnc2c(N3CCC4(C3)N=N4)nc(C(C)(C)C)nc21 [Example 5, 5-tert-Butyl-3-[(2-ethynylphenyl)methyl]-7-(1,2,5-triazaspiro[2.4]hept-1-en-5-yl)-3H-[1,2,3]triazolo[4,5-d]pyrimidine] | 5.6 | 132 |
| C#Cc1cccc(C2(C(F)(F)F)N=N2)c1Cn1nnc2c(N3CCC(F)(F)C3)nc(C(C)(C)C)nc21 [Example 13, 5-tert-Butyl-7-(3,3-difluoropyrrolidin-1-yl)-3-[[2-ethynyl-6-[3-(trifluoromethyl)diazirin-3-yl]phenyl]methyl]triazolo[4,5-d]pyrimidine] | 9 | 147 |
| Cc1nonc1Cn1nnc2c(N3CCC4(C3)N=N4)nc(C(C)(C)C)nc21 [Example 1, 5-tert-Butyl-3-[(4-methyl-1,2,5-oxadiazol-3-yl)methyl]-7-(1,2,5-triazaspiro[2.4]hept-1-en-5-yl)-3H-[1,2,3]triazolo[4,5-d]pyrimidine] | 16.1 | 2960 |
| C#CCCC1(CCNC(=O)c2nonc2Cn2nnc3c(N4CC[C@H](O)C4)nc(C(C)(C)C)nc32)N=N1 [Example 10, 4-({5-tert-Butyl-7-[(3S)-3-hydroxypyrrolidin-1-yl]-3H-[1,2,3]triazolo[4,5-d]pyrimidin-3-yl}methyl)-N-{2-[3-(but-3-yn-1-yl)-3H-diaziren-3-yl]ethyl}-1,2,5-oxadiazole-3-carboxamide] | 200 | > 10000 |
| C#CCCC1(CCNC(=O)c2nonc2Cn2nnc3c(N4CCC(F)(F)C4)nc(C(C)(C)C)nc32)N=N1 [Example 9, 4-{[5-tert-Butyl-7-(3,3-difluoropyrrolidin-1-yl)-3H-[1,2,3]triazolo[4,5-d]pyrimidin-3-yl]methyl}-N-{2-[3-(but-3-yn-1-yl)-3H-diaziren-3-yl]ethyl}-1,2,5-oxadiazole-3-carboxamide] | 1160 | > 10000 |
| CC(C)(C)c1nc(N2CCC(F)(F)C2)c2nnn(Cc3ccccc3C3(C(F)(F)F)N=N3)c2n1 [Example 4, 5-tert-Butyl-7-(3,3-difluoropyrrolidin-1-yl)-3-({2-[3-(trifluoromethyl)-3H-diaziren-3-yl]phenyl}methyl)-3H-[1,2,3]triazolo[4,5-d]pyrimidine] | 4.2 | 488 |
| CC(C)(C)c1nc(N2CCC(F)(F)C2)c2nnn(Cc3ccc(C4(C(F)(F)F)N=N4)cc3Cl)c2n1 [Example 8, 5-tert-Butyl-3-({2-chloro-4-[3-(trifluoromethyl)-3H-diaziren-3-yl]phenyl}methyl)-7-(3,3-difluoropyrrolidin-1-yl)-3H-[1,2,3]triazolo[4,5-d]pyrimidine] | 55.6 | > 10000 |
| C#Cc1ccccc1Cn1nnc2c(N3CCC4(C3)N=N4)nc(C(F)(F)c3ccccc3)nc21 [Example 11, 5-[Difluoro(phenyl)methyl]-3-[(2-ethynylphenyl)methyl]-7-(1,2,6-triazaspiro[2.4]hept-1-en-6-yl)triazolo[4,5-d]pyrimidine] | 19 | 465 |
| Cc1nonc1Cn1nnc2c(N3CCC4(C3)N=N4)nc(C(F)(F)c3ccccc3)nc21 [Example 7, 5-[Difluoro(phenyl)methyl]-3-[(4-methyl-1,2,5-oxadiazol-3-yl)methyl]-7-(1,2,5-triazaspiro[2.4]hept-1-en-5-yl)-3H-[1,2,3]triazolo[4,5-d]pyrimidine] | 45.5 | 5410 |
| CC(C)(C)c1nc(N2CCC3(C2)N=N3)c2nnn(Cc3ccccc3Cl)c2n1 [Example 3, 5-tert-Butyl-3-[(2-chlorophenyl)methyl]-7-(1,2,5-triazaspiro[2.4]hept-1-en-5-yl)-3H-[1,2,3]triazolo[4,5-d]pyrimidine] | 3.3 | 321 |
| FC(F)(F)c1ccccc1Cn1nnc2c(N3CCC4(C3)N=N4)nc(C(F)(F)c3ccccc3)nc21 [Example 2, 5-[Difluoro(phenyl)methyl]-7-(1,2,5-triazaspiro[2.4]hept-1-en-5-yl)-3-{[2-(trifluoromethyl)phenyl]methyl}-3H-[1,2,3]triazolo[4,5-d]pyrimidine] | 0.8 | 993 |
| C#Cc1cccc(C2(C(F)(F)F)N=N2)c1Cn1nnc2c(N3CCC(F)(F)C3)nc(C(F)(F)c3ccccc3)nc21 [Example 12, 5-[Difluoro(phenyl)methyl]-7-(3,3-difluoropyrrolidin-1-yl)-3-[[2-ethynyl-6-[3-(trifluoromethyl)diazirin-3-yl]phenyl]methyl]triazolo[4,5-d]pyrimidine] | 31 | 3390 |
